Measured values taken from the supplement of paper PMC4121296.

Experiments:
Conditions in all cases: exposure: 5-72 hpf
[1] = tested on: Danio rerio embryo (fli1:egfp); assay: heart rate at 72 hpf (beats per minute); higher = faster heart rate
Experimental: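 fli1:egfp zebrafish embryos exposed 5-72 hpf to chemical (0.05-50 µM, 0.1% DMSO) in 384-well plates; heart rate at 72 hpf quantified from stream acquisitions by semi-automated MetaXpress journal (peak counting); only embryos in concentrations passing survival/body-length criteria analyzed.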

[2] = tested on: Danio rerio embryo (fli1:egfp); assay: body length at 72 hpf (µm); higher = longer body (less growth inhibition)
Experimental: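 Transgenic fli1:egfp zebrafish embryos (one per well, 384-well plate) exposed statically from 5 to 72 hpf at 28 °C to chemical (0.05-50 µM, 0.1% DMSO); at 72 hpf anesthetized and imaged on ImageXpress; body length of live, hatched, correctly oriented embryos measured by automated MetaXpress journal. Dead/unhatched/misoriented embryos have no value.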

[3] = tested on: Danio rerio embryo (fli1:egfp); assay: pericardial area at 72 hpf (image area units (not stated)); higher = larger pericardial area (edema)
Experimental: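 fli1:egfp zebrafish embryos exposed 5-72 hpf to chemical (0.05-50 µM, 0.1% DMSO); pericardial area at 72 hpf measured by semi-automated MetaXpress journal (increase indicates edema).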

[4] = tested on: Danio rerio embryo (fli1:egfp); assay: arterial (dorsal aorta) circulation score at 72 hpf (normalized DA-Max (arbitrary units)); higher = more circulation
Experimental: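 fli1:egfp zebrafish embryos exposed 5-72 hpf to chemical (0.05-50 µM, 0.1% DMSO); arterial circulation at 72 hpf quantified from stream acquisitions of the dorsal aorta by FFT-based analysis (DA-Max, normalized dorsal aorta signal); only concentrations passing survival/body-length criteria analyzed.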

[5] = tested on: Danio rerio embryo (fli1:egfp); assay: intersegmental vessel area normalized to body length at 72 hpf (ISV area / body length (normalized units)); higher = more vessel area
Experimental: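 fli1:egfp zebrafish embryos exposed 5-72 hpf to chemical (0.05-50 µM, 0.1% DMSO); intersegmental vessel (ISV) eGFP area quantified by MetaXpress journal at 72 hpf and normalized to body length.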

CCOC(=O)COc1cc(-c2nn(C)c(OC(F)F)c2Cl)c(F)cc1Cl [Pyraflufen-ethyl]
Conditions | arterial, [4] | body length at 72 hpf, [2] | heart rate at 72 hpf, [1] | intersegmental vessel area normalized, [5] | pericardial area at 72 hpf, [3]
0.05 µM | 10.9 | 3030 | 171 | 83.6 | 15700
0.098 µM | 8.57 | 3020 | 174 | 92.3 | 15400
0.195 µM | 10.5 | 3020 | 174 | 84.6 | 15300
0.39 µM | 9.67 | 3040 | 167 | 86.7 | 17100
0.78 µM | 10.2 | 2950 | 169 | 81.6 | 16800
1.56 µM | 7.3 | 2980 | 169 | 85.2 | 20600
3.125 µM | 4.92 | 2960 | 160 | 86.2 | 20000
6.25 µM | 3.84 | 2890 | 163 | 86 | 25300
25 µM | 3.2 | 2790 | 148 | 96.9 | 25400

CCOC(=O)C(Cl)Cc1cc(-n2nc(C)n(C(F)F)c2=O)c(F)cc1Cl (stereo not given) [Carfentrazone-ethyl]
Conditions | arterial, [4] | body length at 72 hpf, [2] | heart rate at 72 hpf, [1] | intersegmental vessel area normalized, [5] | pericardial area at 72 hpf, [3]
0.05 µM | 13.5 | 2950 | 186 | 53.3 | 13800
0.098 µM | 13.1 | 2970 | 172 | 55.6 | 15600
0.195 µM | 14.4 | 2980 | 187 | 64.4 | 15200
0.39 µM | 12.6 | 2990 | 190 | 61.5 | 17900
0.78 µM | 12.8 | 3030 | 194 | 65.4 | 17700
1.56 µM | 11.6 | 2950 | 186 | 56.7 | 18200
3.125 µM | 8.55 | 2940 | 190 | 64.7 | 19600
6.25 µM | 8.33 | 2970 | 184 | 67.9 | 25600

N#Cc1c(Cl)c(Cl)c(Cl)c(C#N)c1Cl [Chlorothalonil]
Conditions | arterial, [4] | body length at 72 hpf, [2] | heart rate at 72 hpf, [1] | intersegmental vessel area normalized, [5] | pericardial area at 72 hpf, [3]
0.05 µM | 11.6 | 2960 | 138 | 70.8 | 17600
0.098 µM | 10.8 | 2990 | 140 | 78.4 | 24100
0.195 µM | 10.3 | 2940 | 154 | 75.7 | 23900
0.39 µM | 12.3 | 2880 | 153 | 80.7 | 22000

CCCCCOC(=O)COc1cc(N2C(=O)C3=C(CCCC3)C2=O)c(F)cc1Cl [Flumiclorac-pentyl]
Conditions | arterial, [4] | body length at 72 hpf, [2] | heart rate at 72 hpf, [1] | intersegmental vessel area normalized, [5] | pericardial area at 72 hpf, [3]
0.05 µM | 11.7 | 3040 | 166 | 55.7 | 14500
0.098 µM | 10.9 | 2980 | 159 | 66.5 | 15200
0.195 µM | 10.3 | 2960 | 166 | 62.8 | 16200
0.39 µM | 10.7 | 2950 | 175 | 66.4 | 15300
0.78 µM | 9.99 | 3000 | 170 | 60.7 | 15200
1.56 µM | 11.6 | 3000 | 178 | 62.7 | 16100
3.125 µM | 11 | 2990 | 182 | 61.8 | 17000
6.25 µM | 8.2 | 2960 | 185 | 65.1 | 16400
12.5 µM | 8.36 | 3000 | 182 | 69.4 | 17700

COC(=O)N(C(=O)N1CO[C@@]2(C(=O)OC)Cc3cc(Cl)ccc3C2=N1)c1ccc(OC(F)(F)F)cc1 [Indoxacarb]
Conditions | arterial, [4] | body length at 72 hpf, [2] | heart rate at 72 hpf, [1] | intersegmental vessel area normalized, [5] | pericardial area at 72 hpf, [3]
0.05 µM | 9.56 | 2980 | 169 | 81.5 | 14200
0.098 µM | 10.3 | 3010 | 171 | 81.7 | 13400
0.195 µM | 10.5 | 2970 | 176 | 85.7 | 15600
0.39 µM | 8.96 | 2950 | 183 | 80.7 | 13200
0.78 µM | 8.19 | 2990 | 185 | 80.1 | 14100
1.56 µM | 10.8 | 2960 | 181 | 85.1 | 12300
3.125 µM | 9.26 | 3010 | 194 | 83.8 | 12700
6.25 µM | 10.5 | 3020 | 188 | 87.7 | 13000
12.5 µM | 14.1 | 2900 | 181 | 70.6 | 14200
